This is an account of results in patent US20150377888A1, “Methods for Predicting and Preventing Metastasis in Triple Negative Breast Cancers” (INSERM (INSTITUT NATIONAL DE LA SANTÉ ET DE LA RECHERCHE …, priority 2013, published 2015).

In assay [1] the test system is TNBC breast cancer cell lines (Hs578T, MDA-MB-231 and MDA-MB-468). As to the kind of experiment: In vitro motility assay (Boyden chambers). It counts as cell-based, human. As to conditions: cells pre-treated with the agent (inhibitors at non-cytotoxic amounts), exposed to cl-CD95L. On the procedure:
Boyden chambers (Millipore, Molsheim, France) containing 8 μm pore membranes were cultured in 24-well plates. After hydration of the membranes, 10^5 cells were added to the top chamber in low serum (1%)-containing medium. […] Cells were cultured for 24 h at 37° C. in a 5% CO2 humidified incubator. To quantify invasion, cells were fixed with methanol and stained with Giemsa. Stained cells were then removed from the top side of the membrane using a cotton-tipped swab and five representative pictures for each insert were taken of the invading cells from the reverse side. For each experiment, cells were lysed and absorbance at 560 nm was measured.

The next assay relates to PI3K. As to the kind of experiment: Immunoblot of Akt phosphorylation at Ser473 (hallmark of PI3K activation) in cells exposed to cl-CD95L. Type of assay: cell-based, human. As to conditions: for effect on CD95-mediated PI3K activation (phosphorylation of Akt at serine 473): breast cancer / TNBC cells exposed to cl-CD95L; for effect on CD95-mediated activation of Aid: pre-treatment of mammary cancer cells, non-cytotoxic amounts. On the procedure: (§1) Cells were lysed for 30 min at 4° C. in lysis buffer [25 mM HEPES (pH 7.4), 1% v/v Triton X-100, 150 mM NaCl, and 2 mM EGTA supplemented with a mix of protease inhibitors (Sigma-Aldrich)]. Protein concentration was determined by the bicinchoninic acid method (PIERCE, Rockford, Ill., USA) according to the manufacturer's protocol. Proteins were separated by SDS-PAGE and transferred to a nitrocellulose membrane (GE Healthcare, Buckinghamshire, England). […] The proteins were visualized with the enhanced chemiluminescence substrate kit (ECL, GE Healthcare).
A general note: A western blot detects proteins with antibodies after separation by electrophoresis.

A further assay relates to NADPHox. As to the kind of experiment: Flow cytometry analysis of intracellular ROS (H2FDA). Particulars: pre-treatment with NADPHox inhibitor. Type of assay: cell-based, human. How it is done:
Cells were pre-incubated for 30 min at 37° C. with 3 μM of H2FDA resuspended in PBS. The cells were then pre-incubated for an additional 30 min with or without ROS inhibitors before stimulation with 100 ng/ml cl-CD95L for the indicated times. Cells were then washed and analyzed by FACScalibur (BD Bioscience).
Background: A flow cytometer gives signals particle by particle.

For the next assay, the system named is c-yes. As to the kind of experiment: c-yes activation status (auto-phosphorylation at Tyrosine 426). Type of assay: cell-based, human. As to conditions: pre-treatment of mammary cancer cells, non-cytotoxic amounts. On the procedure: as §1
For assay [2], the system named is CD95-mediated Ca2+ response. The assay can be described thus: Ca2+ monitoring: CD95-mediated Ca2+ response. It counts as cell-based, human. Particulars: TNBC cells exposed to cl-CD95L. How it is done:
For experiments on parent cell lines, breast cancer cells were loaded with Fura2-PE3-AM (1 μM) at room temperature for 30 min in Hank's Balanced Salt Solution (HBSS). After washing with HBSS, the cells were incubated for 15 min in the absence of Fura2-AM to complete de-esterification of the dye. Cells were placed in the temperature controlled chamber (37° C.) of an inverted epifluorescence microscope (Olympus IX70) equipped with an ×40 UApo/340-1.15 W water-immersion objective (Olympus), and fluorescence micrograph images were captured at 510 nm and 12-bit resolution by a fast-scan camera (CoolSNAP fx Monochrome, Photometrics). To minimize UV light exposure, a 4×4 binning function was used. […]
For experiments on GFP-expressing cell lines, Fluo8-AM was used, instead of Fura2-PE3-AM for experiments with GFP-expressing cells (infected with shRNA-expressing lentivirus), because GFP fluorescence disturbs Ca^2+ measurement with Fura2-PE3. Efficiently transduced cells (GFP expressing cells) were located by their emission of fluorescence at 530±30 nm for a light excitation at 485±22 nm. Ca^2+ changes were evaluated by exciting Fluo8-AM-loaded cells at […]. The values of the emitted fluorescence (605±50 nm) for each cell (F) were normalized to the starting fluorescence (F0) and reported as F/F0 (relative Ca^2+[CYT]). […]

In a further assay the test system is EGFR. The assay can be described thus: Ca2+ monitoring: EGF-induced Ca2+ response. Particulars: TNBC cells (MDA-MB-231) in presence of EGF. Type of assay: cell-based, human. How it is done: For experiments on parent cell lines, breast cancer cells were loaded with Fura2-PE3-AM (1 μM) at room temperature for 30 min in Hank's Balanced Salt Solution (HBSS). […] To minimize UV light exposure, a 4×4 binning function was used. Fura2-AM was alternately excited at 340 and 380 nm, and the ratios of the resulting images (excitations at 340 and 380 nm and emission filter at 520 nm) were produced at constant intervals (10 seconds). […] Fratio reflects the intracellular Ca^2+ concentration changes. Each experiment was repeated 3 times, and for each experimental condition, the average of more than 20 single-cell traces was used.

The next assay deals with CD95 (human) (UniProt P25445). As to the kind of experiment: cell-based or functional assay.
A further assay addresses T1, Nox-2 (human, UniProt P04839 2-570).
T1 sequence (looked up): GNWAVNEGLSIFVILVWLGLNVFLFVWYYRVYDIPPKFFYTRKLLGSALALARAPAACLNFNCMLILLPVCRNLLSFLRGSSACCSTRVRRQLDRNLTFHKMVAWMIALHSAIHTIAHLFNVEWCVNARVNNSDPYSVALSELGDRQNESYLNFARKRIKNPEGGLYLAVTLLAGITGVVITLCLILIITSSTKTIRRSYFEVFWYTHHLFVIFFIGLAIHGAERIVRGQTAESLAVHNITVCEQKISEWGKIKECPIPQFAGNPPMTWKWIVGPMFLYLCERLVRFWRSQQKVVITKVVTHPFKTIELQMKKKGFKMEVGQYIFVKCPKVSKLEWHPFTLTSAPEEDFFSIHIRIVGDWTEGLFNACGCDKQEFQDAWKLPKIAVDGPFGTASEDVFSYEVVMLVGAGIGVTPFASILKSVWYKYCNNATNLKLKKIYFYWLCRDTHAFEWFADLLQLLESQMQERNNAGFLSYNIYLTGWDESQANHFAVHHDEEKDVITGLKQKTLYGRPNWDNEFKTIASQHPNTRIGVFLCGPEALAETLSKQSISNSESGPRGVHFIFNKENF
As to the kind of experiment: co-immunoprecipitation of CD95 (MISC) from MDA-MB-231 cells stimulated with cl-CD95L. On the procedure:
(§2) The cells were then lysed, 1 μg of Apo1-3 was added to the cell lysate and CD95 was immunoprecipitated by the addition of protein A-sepharose beads (Sigma-Aldrich). […] After extensive washing, the immune complex was resolved by SDS-PAGE.

The target in another assay is T2, Nox-4 (human, UniProt Q9NPH5 1-578, limits assumed).
T2 sequence (looked up): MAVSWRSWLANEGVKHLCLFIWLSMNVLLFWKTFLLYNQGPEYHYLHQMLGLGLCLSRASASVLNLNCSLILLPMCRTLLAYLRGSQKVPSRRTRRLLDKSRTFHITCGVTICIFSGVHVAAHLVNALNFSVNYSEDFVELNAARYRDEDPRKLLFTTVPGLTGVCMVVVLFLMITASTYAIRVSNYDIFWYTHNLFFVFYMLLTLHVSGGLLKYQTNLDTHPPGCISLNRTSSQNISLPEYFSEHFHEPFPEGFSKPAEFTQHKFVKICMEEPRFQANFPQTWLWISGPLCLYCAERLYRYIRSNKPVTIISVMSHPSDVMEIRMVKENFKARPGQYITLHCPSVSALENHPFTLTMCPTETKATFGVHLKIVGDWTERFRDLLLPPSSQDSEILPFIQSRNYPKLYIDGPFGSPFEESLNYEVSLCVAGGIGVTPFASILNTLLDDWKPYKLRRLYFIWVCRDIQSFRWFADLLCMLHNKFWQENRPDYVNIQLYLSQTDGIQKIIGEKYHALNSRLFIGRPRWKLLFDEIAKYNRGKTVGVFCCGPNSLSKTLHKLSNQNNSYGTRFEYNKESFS
The description is as above. On the procedure: as §2

Another assay deals with T3, Nox-1 (human, UniProt Q9Y5S8 1-564, limits assumed).
T3 sequence (looked up): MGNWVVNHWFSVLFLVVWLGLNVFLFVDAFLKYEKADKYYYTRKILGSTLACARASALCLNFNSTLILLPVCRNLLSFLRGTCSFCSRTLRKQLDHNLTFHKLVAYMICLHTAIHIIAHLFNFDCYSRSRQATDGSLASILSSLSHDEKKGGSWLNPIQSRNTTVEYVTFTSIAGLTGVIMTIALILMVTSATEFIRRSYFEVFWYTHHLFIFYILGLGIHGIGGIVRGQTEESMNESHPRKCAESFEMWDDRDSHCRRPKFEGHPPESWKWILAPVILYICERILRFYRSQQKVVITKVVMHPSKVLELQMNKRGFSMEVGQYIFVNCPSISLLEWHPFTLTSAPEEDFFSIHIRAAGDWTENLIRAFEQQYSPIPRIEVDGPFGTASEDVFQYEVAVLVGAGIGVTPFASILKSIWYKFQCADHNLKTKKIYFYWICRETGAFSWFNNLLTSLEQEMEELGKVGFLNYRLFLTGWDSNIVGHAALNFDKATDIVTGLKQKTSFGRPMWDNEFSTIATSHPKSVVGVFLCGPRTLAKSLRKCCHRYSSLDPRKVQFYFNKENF
The description is as above. On the procedure: as §2

With `CC(=O)OCOC(=O)CN(CC(=O)OCOC(C)=O)c1ccccc1OCCOc1ccccc1N(CC(=O)OCOC(C)=O)CC(=O)OCOC(C)=O` [BAPTA-AM, 1,2-bis-(o-Aminophenoxy)ethane-N,N,N′,N′-tetraacetic Acid Tetra-(acetoxymethyl) Ester], in assay [1], the “effect on migration of TNBC cells exposed to cl-CD95L” value (shortened to “effect on migration”) is listed as “inhibited”. The “effect on CD95-mediated PI3K activation (phosphorylation of Akt at serine 473)” value (shortened to “effect on CD95-mediated PI3K activation”) with PI3K is “inhibited”.
`Cc1nnsc1C(=O)Nc1ccc(-n2nc(C(F)(F)F)cc2C(F)(F)F)cc1` [BTP2]: the “effect on migration” value in [1] was “inhibited”. Moreover, the “effect on CD95-mediated PI3K activation” value with PI3K was “inhibited”.
In the case of `c1ccc2c(c1)[I+]c1ccccc1-2` [DPI, diphenyleneiodonium chloride], in assay [1], the “effect on migration” value is reported as “inhibited cell migration”. In the assay with PI3K, the “effect on CD95-mediated activation of Aid” value is “impaired”. Besides, the “effect on cl-CD95L-induced increase in intracellular ROS” value in the assay on NADPHox is “blocked”. Also, the “effect on CD95-mediated activation of c-yes” value with c-yes is recorded as “impaired”.
Consider `COc1cc(C(C)=O)ccc1O` [apocynin], for which the “effect on migration” value in assay [1] is recorded as “inhibited cell migration”. Also, in the assay on PI3K, the “effect on CD95-mediated activation of Aid” value is given as “impaired”. Moreover, the “effect on cl-CD95L-induced increase in intracellular ROS” value with NADPHox is on record as “blocked”. For the same molecule, in the assay with c-yes, the “effect on CD95-mediated activation of c-yes” value is recorded as “impaired”.
For `C#Cc1cccc(Nc2ncnc3cc(OCCOC)c(OCCOC)cc23)c1` [erlotinib], the “effect on migration” value in assay [1] is “abolished”. Also, in the assay on PI3K, the “effect on CD95-mediated PI3K activation” value is on record as “prevented”. Moreover, the “effect on CD95-mediated Ca2+ response” value in assay [2] was “neither treatment with erlotinib nor EGFR silencing altered”; in assay [2] (listed as Erlotinib) it was “do not alter”. The results for the “effect on EGF-induced Ca2+ response” value in the assay on EGFR and in the assay with EGFR (listed as Erlotinib) were “blocked” and “abolished”, respectively.
In the case of “metalloprotease-cleaved CD95L (from UniProt P48023 130-281) (ligand)”, the cell migration (Boyden chamber) of TNBC cells with CD95 (human) was determined as 100 pg/mL.

B1: CD95 (receptor)
chain: QVTDINSKGLELRKTVTTVETQNLEGLHHDGQFCHKPCPPGERKARDCTVNGDEPDCVPCQEGKEYTDKAHFSSKCRRCRLCDEGHGLEVEINCTRTQNTKCRCKPNFFCNSTVCEHCDPCTKCEHGIIKECTLTSNTKCKEEGSRSNLGWLCLLLLPIPLIVWVKRKEVQKTCRKHRKENQGSHESPTLNPETVAINLSDVDLSKYITTIAGVMTLSQVKGFVRKNGVNEAKIDEIKNDNVQDTAEQKVQLLRNWHQLHGKKEAYDTLIKDLKKANLCTLAEKIQTIILKDITSDSENSNFRNEIQSLV
notes: also called Fas; FasR
On to B1, for which the binding result in the assay with Nox-2, with Nox-4 and with Nox-1 was “no binding” throughout.
